Measurements from ChEMBL document CHEMBL4382254, “Design, synthesis, structure-activity relationships and mechanism of action of new quinoline derivatives as potential antitumor agents” (Eur J Med Chem, 2019).
Each block holds one compound with its values, some of them ahead of it.

Key:
HCT-116 = test: Cytotoxicity against human HCT116 cells after 48 hrs by MTT assay; assay type: functional, cell-based; details: HCT-116, 48 h
RKO = test: Cytotoxicity against human RKO cells after 48 hrs by MTT assay; assay type: functional, cell-based
DLD-1 = test: Cytotoxicity against human DLD1 cells after 48 hrs by MTT assay; assay type: functional, cell-based; details: DLD-1, 48 h
HepG2 = test: Cytotoxicity against human HepG2 cells after 48 hrs by MTT assay; assay type: functional, cell-based; details: HepG2, 48 h
BGC-823 = test: Cytotoxicity against human BGC823 cells after 48 hrs by MTT assay; assay type: functional, cell-based; details: BGC-823, 48 h
NCI-H1650 = test: Cytotoxicity against human NCI-H1650 cells after 48 hrs by MTT assay; assay type: functional, cell-based; details: NCI-H1650, 48 h
SK-OV-3 = test: Cytotoxicity against human SKOV3 cells after 48 hrs by MTT assay; assay type: functional, cell-based; details: SK-OV-3, 48 h
[1] = Solubility of the compound in water; assay type: physicochemical

Structure (SMILES): Clc1ccnc2cc(OCCc3ccccc3)ccc12
IC50 (HCT-116): 2180 nM
IC50 (RKO): 2560 nM
IC50 (DLD-1): 3380 nM
IC50 (HepG2): 3310 nM
IC50 (BGC-823): 2010 nM
IC50 (NCI-H1650): 2300 nM
IC50 (SK-OV-3): 2010 nM

Structure (SMILES): Oc1ccnc2cc(Cl)ccc12
IC50 (HCT-116): > 10000 nM
IC50 (RKO): > 10000 nM
IC50 (DLD-1): > 10000 nM
IC50 (HepG2): > 10000 nM
IC50 (BGC-823): > 10000 nM
IC50 (NCI-H1650): > 10000 nM
IC50 (SK-OV-3): > 10000 nM

solubility [1]: > 10000 µg/mL
Structure (SMILES): CCCCCCOc1ccc2c(NCCN(C)C)ccnc2c1
IC50 (HCT-116): 850 nM
IC50 (RKO): 1120 nM
IC50 (DLD-1): 1870 nM
IC50 (HepG2): 1370 nM
IC50 (BGC-823): 1090 nM
IC50 (NCI-H1650): 930 nM
IC50 (SK-OV-3): 1860 nM

Structure (SMILES): Clc1ccnc2cc(OCc3ccccc3)ccc12
IC50 (HCT-116): 2470 nM
IC50 (RKO): 2410 nM
IC50 (DLD-1): 3270 nM
IC50 (HepG2): 2680 nM
IC50 (BGC-823): 5170 nM
IC50 (NCI-H1650): 2720 nM
IC50 (SK-OV-3): 5170 nM

Structure (SMILES): COc1ccc2c(Cl)ccnc2c1
IC50 (HCT-116): 8820 nM
IC50 (RKO): 9650 nM
IC50 (DLD-1): > 10000 nM
IC50 (HepG2): 6070 nM
IC50 (BGC-823): > 10000 nM
IC50 (NCI-H1650): 8160 nM
IC50 (SK-OV-3): > 10000 nM

solubility [1]: > 10000 µg/mL
Structure (SMILES): CCOc1ccc2c(NCCCN(C)C)ccnc2c1
IC50 (HCT-116): 3380 nM
IC50 (RKO): 5240 nM
IC50 (DLD-1): 8540 nM
IC50 (HepG2): 5860 nM
IC50 (BGC-823): 9810 nM
IC50 (NCI-H1650): 3830 nM
IC50 (SK-OV-3): 6780 nM

solubility [1]: > 10000 µg/mL
Structure (SMILES): C=CCOc1ccc2c(NCCCN(C)C)ccnc2c1
IC50 (HCT-116): 2100 nM
IC50 (RKO): 3560 nM
IC50 (DLD-1): 5180 nM
IC50 (HepG2): 3990 nM
IC50 (BGC-823): 6680 nM
IC50 (NCI-H1650): 3120 nM
IC50 (SK-OV-3): 4250 nM

solubility [1]: > 10000 µg/mL
Structure (SMILES): C=CCOc1ccc2c(NCCN(C)C)ccnc2c1
IC50 (HCT-116): 860 nM
IC50 (RKO): 1270 nM
IC50 (DLD-1): 1530 nM
IC50 (HepG2): 1660 nM
IC50 (BGC-823): 1360 nM
IC50 (NCI-H1650): 930 nM
IC50 (SK-OV-3): 1560 nM

solubility [1]: > 10000 µg/mL
Structure (SMILES): CN(C)CCCNc1ccnc2cc(OCc3ccc(F)cc3)ccc12
IC50 (HCT-116): 740 nM
IC50 (RKO): 1230 nM
IC50 (DLD-1): 2540 nM
IC50 (HepG2): 1570 nM
IC50 (BGC-823): 490 nM
IC50 (NCI-H1650): 940 nM
IC50 (SK-OV-3): 1280 nM

Structure (SMILES): CCCCOc1ccc2c(Cl)ccnc2c1
IC50 (HCT-116): 2740 nM
IC50 (RKO): 3050 nM
IC50 (DLD-1): 3780 nM
IC50 (HepG2): 2640 nM
IC50 (BGC-823): 3610 nM
IC50 (NCI-H1650): 2570 nM
IC50 (SK-OV-3): 4130 nM

Structure (SMILES): CCCCCCOc1ccc2c(Cl)ccnc2c1
IC50 (HCT-116): 2440 nM
IC50 (RKO): 2720 nM
IC50 (DLD-1): 2660 nM
IC50 (HepG2): 2420 nM
IC50 (BGC-823): 2380 nM
IC50 (NCI-H1650): 2080 nM
IC50 (SK-OV-3): > 10000 nM

Structure (SMILES): Clc1ccnc2cc(OCCCc3ccccc3)ccc12
IC50 (HCT-116): 800 nM
IC50 (RKO): 1420 nM
IC50 (DLD-1): 2140 nM
IC50 (HepG2): 1780 nM
IC50 (BGC-823): 2370 nM
IC50 (NCI-H1650): 630 nM
IC50 (SK-OV-3): 3610 nM

Structure (SMILES): CCOc1ccc2c(Cl)ccnc2c1
IC50 (HCT-116): 3160 nM
IC50 (RKO): 3870 nM
IC50 (DLD-1): 2750 nM
IC50 (HepG2): 2660 nM
IC50 (BGC-823): 3910 nM
IC50 (NCI-H1650): 3340 nM
IC50 (SK-OV-3): 3460 nM

Structure (SMILES): CC(C)COc1ccc2c(Cl)ccnc2c1
IC50 (HCT-116): 2490 nM
IC50 (RKO): 2680 nM
IC50 (DLD-1): 3100 nM
IC50 (HepG2): 2250 nM
IC50 (BGC-823): 3030 nM
IC50 (NCI-H1650): 2100 nM
IC50 (SK-OV-3): 3190 nM

Structure (SMILES): C=CCOc1ccc2c(Cl)ccnc2c1
IC50 (HCT-116): 2570 nM
IC50 (RKO): 2460 nM
IC50 (DLD-1): 2890 nM
IC50 (HepG2): 2770 nM
IC50 (BGC-823): 2930 nM
IC50 (NCI-H1650): 2280 nM
IC50 (SK-OV-3): 4030 nM

Structure (SMILES): Fc1ccc(COc2ccc3c(Cl)ccnc3c2)cc1
IC50 (HCT-116): 2070 nM
IC50 (RKO): 1980 nM
IC50 (DLD-1): 3230 nM
IC50 (HepG2): 3010 nM
IC50 (BGC-823): 2780 nM
IC50 (NCI-H1650): 2230 nM
IC50 (SK-OV-3): 2780 nM

solubility [1]: > 10000 µg/mL
Structure (SMILES): CCOc1ccc2c(NCCN(C)C)ccnc2c1
IC50 (HCT-116): 2570 nM
IC50 (RKO): 3650 nM
IC50 (DLD-1): 6240 nM
IC50 (HepG2): 5680 nM
IC50 (BGC-823): 2520 nM
IC50 (NCI-H1650): 3490 nM
IC50 (SK-OV-3): 4620 nM

solubility [1]: > 10000 µg/mL
Structure (SMILES): CN(C)CCNc1ccnc2cc(OCc3ccccc3)ccc12
IC50 (HCT-116): 1980 nM
IC50 (RKO): 2350 nM
IC50 (DLD-1): 2140 nM
IC50 (HepG2): 3120 nM
IC50 (BGC-823): 1250 nM
IC50 (NCI-H1650): 1620 nM
IC50 (SK-OV-3): 2350 nM

Structure (SMILES): CC(C)Oc1ccc2c(Cl)ccnc2c1
IC50 (HCT-116): 2590 nM
IC50 (RKO): 2690 nM
IC50 (DLD-1): 3240 nM
IC50 (HepG2): 2050 nM
IC50 (BGC-823): 2630 nM
IC50 (NCI-H1650): 2310 nM
IC50 (SK-OV-3): 3060 nM

Structure (SMILES): CCCCCCCCOc1ccc2c(Cl)ccnc2c1
IC50 (HCT-116): 2820 nM
IC50 (RKO): 3640 nM
IC50 (DLD-1): 4500 nM
IC50 (HepG2): 2640 nM
IC50 (BGC-823): 4300 nM
IC50 (NCI-H1650): 3240 nM
IC50 (SK-OV-3): 4300 nM
